Reference: patent US11498899B2, “Nitrone herbicides” (FMC Corporation, priority 2016, dated 2022)

Columns and labels:
[1] = test system: barnyardgrass (Echinochloa crus-galli); test: Test A preemergence, visual injury rating 0-100 (0 no effect, 100 complete control); type: in vivo
[2] = test system: foxtail, giant (giant foxtail, Setaria faberii); test: Test A preemergence, visual injury rating 0-100; type: in vivo
[3] = test system: kochia (Kochia scoparia); test: Test A preemergence, visual injury rating 0-100; type: in vivo
[4] = test system: pigweed (Amaranthus retroflexus); test: Test A preemergence, visual injury rating 0-100; type: in vivo
[5] = test system: ragweed (common ragweed, Ambrosia elatior); test: Test A preemergence, visual injury rating 0-100; type: in vivo
[6] = test system: ryegrass, Italian (Italian ryegrass, Lolium multiflorum); test: Test A preemergence, visual injury rating 0-100; type: in vivo
[7] = test system: barnyardgrass (Echinochloa crus-galli); test: Test A postemergence, visual injury rating 0-100; type: in vivo; conditions: 0 to 100 scale
[8] = test system: blackgrass (Alopecurus myosuroides); test: Test A postemergence, visual injury rating 0-100; type: in vivo; conditions: 0 to 100 scale
[9] = test system: corn (Zea mays); test: Test A postemergence, visual injury rating 0-100; type: in vivo; conditions: 0 to 100 scale
[10] = test system: foxtail, giant (giant foxtail, Setaria faberii); test: Test A postemergence, visual injury rating 0-100; type: in vivo; conditions: 0 to 100 scale
[11] = test system: galium (catchweed bedstraw, Galium aparine); test: Test A postemergence, visual injury rating 0-100; type: in vivo; conditions: 0 to 100 scale
[12] = test system: kochia (Kochia scoparia); test: Test A postemergence, visual injury rating 0-100; type: in vivo; conditions: 0 to 100 scale
[13] = test system: pigweed (Amaranthus retroflexus); test: Test A postemergence, visual injury rating 0-100; type: in vivo; conditions: 0 to 100 scale
[14] = test system: ragweed (common ragweed, Ambrosia elatior); test: Test A postemergence, visual injury rating 0-100; type: in vivo; conditions: 0 to 100 scale
[15] = test system: ryegrass, Italian (Italian ryegrass, Lolium multiflorum); test: Test A postemergence, visual injury rating 0-100; type: in vivo; conditions: 0 to 100 scale
[16] = test system: wheat (Triticum aestivum); test: Test A postemergence, visual injury rating 0-100; type: in vivo; conditions: 0 to 100 scale
[17] = test system: ducksalad (Heteranthera limosa); test: Test B flooded paddy test, visual rating 0-100; conditions: Flood, 250 g ai/ha, applied to paddy water, rated after 13 to 15 days
[18] = test system: barnyardgrass (Echinochloa crus-galli); test: Test B flooded paddy test, visual rating 0-100; conditions: Flood, 250 g ai/ha, applied to paddy water, rated after 13 to 15 days
[19] = test system: rice (Oryza sativa); test: Test B flooded paddy test, visual rating 0-100 (0 no effect, 100 complete control); conditions: Flood, 250 g ai/ha, applied to paddy water, rated after 13 to 15 days

Compound | Barnyardgrass plant response rating (0 to 100 scale) ([1]; 125 g ai/ha) | Barnyardgrass plant response rating (0 to 100 scale) ([1]; 500 g ai/ha) | Foxtail, Giant plant response rating (0 to 100 scale) ([2]; 125 g ai/ha) | Foxtail, Giant plant response rating (0 to 100 scale) ([2]; 500 g ai/ha) | Kochia plant response rating (0 to 100 scale) ([3]; 125 g ai/ha) | Kochia plant response rating (0 to 100 scale) ([3]; 500 g ai/ha) | Pigweed plant response rating (0 to 100 scale) ([4]; 125 g ai/ha) | Pigweed plant response rating (0 to 100 scale) ([4]; 500 g ai/ha) | Ragweed plant response rating (0 to 100 scale) ([5]; 125 g ai/ha) | Ragweed plant response rating (0 to 100 scale) ([5]; 500 g ai/ha) | Ryegrass, Italian plant response rating (0 to 100 scale) ([6]; 125 g ai/ha) | Ryegrass, Italian plant response rating (0 to 100 scale) ([6]; 500 g ai/ha) | Barnyardgrass plant response rating ([7]; 125 g ai/ha) | Barnyardgrass plant response rating ([7]; 500 g ai/ha) | Blackgrass plant response rating ([8]; 125 g ai/ha) | Blackgrass plant response rating ([8]; 500 g ai/ha) | Corn plant response rating ([9]; 125 g ai/ha) | Corn plant response rating ([9]; 500 g ai/ha) | Foxtail, Giant plant response rating ([10]; 125 g ai/ha) | Foxtail, Giant plant response rating ([10]; 500 g ai/ha) | also measured
CC1=[N+]([O-])C(C(=O)Nc2cccc(F)c2F)C(c2cc(C)nc(OC(F)F)c2)C1 (racemic) [Compound 83] | 90 | 90 | 90 | 90 | 0 | 50 | 60 | 90 | 10 | 90 | 70 | 90 | 80 | 90 | 70 | 80 | 70 | 90 | 80 | 90 | Galium plant response rating ([11]; 125 g ai/ha): 60; Galium plant response rating ([11]; 500 g ai/ha): 70; Kochia plant response rating ([12]; 125 g ai/ha): 30; Kochia plant response rating ([12]; 500 g ai/ha): 50; Pigweed plant response rating ([13]; 125 g ai/ha): 30; Pigweed plant response rating ([13]; 500 g ai/ha): 80; Ragweed plant response rating ([14]; 125 g ai/ha): 30; Ragweed plant response rating ([14]; 500 g ai/ha): 70; Ryegrass, Italian plant response rating ([15]; 125 g ai/ha): 60; Ryegrass, Italian plant response rating ([15]; 500 g ai/ha): 80; Wheat plant response rating ([16]; 125 g ai/ha): 60; Wheat plant response rating ([16]; 500 g ai/ha): 80; Ducksalad plant response rating (0 to 100 scale) [17]: 75; Barnyardgrass plant response rating (0 to 100 scale) [18]: 80; Rice plant response rating (0 to 100 scale) [19]: 0
CC1=[N+]([O-])C(C(=O)Nc2cccc(F)c2F)C(c2cc(F)c(F)c(Oc3ncc(F)cn3)c2)C1 (racemic) [Compound 85] | 80 | 100 | 80 | 100 | 0 | 10 | 50 | 0 | 0 | 0 | 60 | 90 | 40 | 80 | 60 | 80 | 60 | 90 | 60 | 80 | Galium plant response rating ([11]; 125 g ai/ha): 20; Galium plant response rating ([11]; 500 g ai/ha): 30; Kochia plant response rating ([12]; 125 g ai/ha): 0; Kochia plant response rating ([12]; 500 g ai/ha): 0; Pigweed plant response rating ([13]; 125 g ai/ha): 0; Pigweed plant response rating ([13]; 500 g ai/ha): 0; Ragweed plant response rating ([14]; 125 g ai/ha): 0; Ragweed plant response rating ([14]; 500 g ai/ha): 0; Ryegrass, Italian plant response rating ([15]; 125 g ai/ha): 0; Ryegrass, Italian plant response rating ([15]; 500 g ai/ha): 60; Wheat plant response rating ([16]; 125 g ai/ha): 50; Wheat plant response rating ([16]; 500 g ai/ha): 90; Ducksalad plant response rating (0 to 100 scale) [17]: 0; Barnyardgrass plant response rating (0 to 100 scale) [18]: 0; Rice plant response rating (0 to 100 scale) [19]: 0
